In patent US20130115174A1, “TRANSMUCOSAL COMPOSITION CONTAINING ANTHOCYANINS FOR ALLEVIATING A VISUAL DISCOMFORT” (priority 2010, published 2013):
Read-outs that look alike come from different tables or passages of the source.

Experiments:
[1] = design: species or system Rats (OFA, Sprague-Dawlay); conditions: rat, in vivo
Procedure: The stick gum administered to Rats contains 5 mg of vegetal extract titrated at 25% of anthocyanosides (i.e. 1.250 μg of anthocyanosides).
The Sprague Dawley rat (10 Males) used extensively in medical research weighing 450-520 g were received and placed separately in cage in room temperature controlled (22° C.). […] Rats were maintained in dark periode condition and fed a diet (755 g/kg wheat starch, 150 g/kg casein, 50 g/kg peanut oil, 35 g/kg AlN-93M mineral mixture, 10 g/kg AlN-76A vitamin mixture) during 2 weeks (Felgines, C. et al. J. Nutr 2002).
The stick gum was deposited at the buccal mucosa area.
Peripheral blood was collected 1 hour post-administration, centrifuged and plasma was acidified through formic acid addition. After acidification, plasma samples were conserved at −80° C. and analyzed by LC-MS/MS (Liquid Chromatography—Mass Spectrometer/Mass Spectrometer).
In parallel, epithelium and conjunctive tissues were collected 45 minutes post-administration, placed in formic acid and eventually conserved at −80° C. Before LC-MS/MS analyze, tissues were washed in PBS (phosphate buffered saline) and homogenized on ice. Protein concentrations were determined by Lowry method. To facilitate tissues preparation, samples were homogenized and treated with 2.5% trypsin and 2% collagenase during 1.5 h at 37° C., and then acidified with formic acid. […]

[2] = Digestive versus sublingual absorption, plasmatic level 1 hour after administration; assay type: in vivo, Rats; conditions: for concentration at 1 h: rat, plasma, read-out: Plasmatic lutein concentration
Procedure: Taurin and Lutein plasmatic level are evaluated using HPLC process as described Lallemand F. et al, 2004 and Shanmugam S, et al, 2011, respectively.

| absorption in the tissues and in the plasma [1] | absorption, lingual way as compared to the digestive way ([2]; Example 5, rats) | concentration at 1 h ([2]; oral, Digestive, 6 mg/kg) | concentration at 1 h ([2]; oral, Digestive, 12 mg/kg) | concentration at 1 h ([2]; other: sublingual, Sublingual, 6 mg/kg) | concentration at 1 h ([2]; other: sublingual, Sublingual, 12 mg/kg) | Compound |
| --- | --- | --- | --- | --- | --- | --- |
| significantly absorbed |  |  |  |  |  | Anthocyanin |
|  | more effective | 34 ng/mL | 32 ng/mL | 120 ng/mL | 160 ng/mL | CC1=C[C@H](O)CC(C)(C)[C@H]1/C=C/C(C)=C/C=C/C(C)=C/C=C/C=C(C)/C=C/C=C(C)/C=C/C1=C(C)C[C@@H](O)CC1(C)C [lutein, Lutein] |
